Measured values from patent publication US20240393292A1, “ALLERGY ANTIGEN AND EPITOPE THEREOF” (HOYU CO., LTD., priority 2019, published 2024).
Each block holds one substance with its values, some of them ahead of it.

Test system: IgE antibodies from patients
Assay: Wheat epitope mapping (2): overlapping 10-amino-acid peptide fragments shifted by one amino acid;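 for Rank of partial sequence as epitope binding to IgE antibody: key = sequence deemed particularly important within the common 15-residue sequence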
Assay type: binding, human
Details: sequence without X; for Epitope sequence binding to IgE antibody, rank of the sequence (Key/Preferably/More preferably/Further preferably): serum of patient P2 (WDEIA)
Method: The peptides to be synthesized were shifted by one amino acid.
The library was prepared by the same procedure as described above in (A), and the presence or absence of binding of an IgE antibody present in the serum of a patient to each peptide fragment was measured by the same technique as described above. Numeric values determined from images obtained as a result of carrying out only the procedures (1) and (4) to (6) described above in the subsection titled (3) Spotting of cellulose-bound peptide solution were used as control values. The control value of each peptide was subtracted from numeric values determined from images obtained from results about the serum of patients, and the obtained value of the difference was compared with values of the peptides serving as the basis of overlapping.
Chemiluminescence intensity in images obtained by measurement was converted into a numeric value in the same manner as in (A). Numeric values determined from images obtained as a result of carrying out only the procedures (1) and (4) to (6) described above in the subsection titled (3) Spotting of cellulose-bound peptide solution (secondary antibody measurement values) were used as control values. The control value of each peptide was subtracted from numeric values determined from images obtained from results about the serum of patients. When values obtained using the sequences (SEQ ID NOs: 29, 131, 191, 281, 346, 414, 493, 562, 640, 706, 776, 899, 974, 1010, 1089, 1142, 1166, 1209, 1257, 1297, 1367, 1403, 1508, 1566, 1598, 1608, 1685, 1753, 1789, 1836, 1895, 1977, 2004, 2027, 2068, 2154, 2217, 2265, 2309, 2342, 2419, 2491, 2545, 2613, 2631, 2674, 2701, 2774, 2809 and 2830) serving as the basis of overlapping were defined as 100%, it was determined that: a peptide having a value of the difference that was less than 30% had no binding activity against IgE antibodies; a peptide having a value of the difference that was 30% or more and less than 50% had binding activity, albeit poor, against IgE antibodies; a peptide having a value of the difference that was 50% or more and less than 70% had binding activity, albeit somewhat poor, against IgE antibodies; and a peptide having a value of the difference that was 70% or more had equivalent or good binding activity against IgE antibodies and was thus a peptide had remaining binding activity against IgE antibodies.

[1] = serum of patient P51 (child, general immediate type allergy to wheat)
[2] = serum of patient G7 (adult, general immediate type allergy to wheat)

Epitope sequence binding to IgE antibody, rank of the sequence (serum of patient P36 (WDEIA)): Key
Substance: 1357 (NVEN; REGION 1..4: note = epitope) [compound 1357]

Epitope sequence binding to IgE antibody, rank of the sequence (serum of patient P36 (WDEIA)): Preferably
Substance: 1358 (VEDNRRALR; REGION 1..9: note = epitope) [compound 1358]

Epitope sequence binding to IgE antibody, rank of the sequence [1]: Preferably
Substance: 1360 (INVEN; REGION 1..5: note = epitope) [compound 1360]

Epitope sequence binding to IgE antibody, rank of the sequence [1]: Key
Substance: 1361 (NVEN; REGION 1..4: note = epitope) [compound 1361]

Epitope sequence binding to IgE antibody, rank of the sequence [2]: Preferably
Substance: 1365 (SINVEN; REGION 1..6: note = epitope) [compound 1365]

Epitope sequence binding to IgE antibody, rank of the sequence [2]: Key
Substance: 1366 (INVEN; REGION 1..5: note = epitope) [compound 1366]

Epitope sequence binding to IgE antibody, rank of the sequence (Key/Preferably/More preferably/Further preferably): Key
Substance: 1368 (KPWQQQ; REGION 1..6: note = epitope) [compound 1368]

Epitope sequence binding to IgE antibody, rank of the sequence (Key/Preferably/More preferably/Further preferably): Preferably
Substance: 1369 (QQPLPPQQ; REGION 1..8: note = epitope) [compound 1369]

Epitope sequence binding to IgE antibody, rank of the sequence (Key/Preferably/More preferably/Further preferably): Key
Substance: 1370 (QPLPPQQ; REGION 1..7: note = epitope) [compound 1370]

Epitope sequence binding to IgE antibody, rank of the sequence (serum of patient P4 (WDEIA)): Preferably
Substance: 1371 (QPLPPQQQP; REGION 1..9: note = epitope) [compound 1371]

Epitope sequence binding to IgE antibody, rank of the sequence (serum of patient P4 (WDEIA)): Key
Substance: 1372 (QPLPPQQQ; REGION 1..8: note = epitope) [compound 1372]

Epitope sequence binding to IgE antibody, rank of the sequence (serum of patient P7 (WDEIA)): Preferably
Substance: 1374 (PWQQQPLP; REGION 1..8: note = epitope) [compound 1374]

Epitope sequence binding to IgE antibody, rank of the sequence (serum of patient P7 (WDEIA)): Key
Substance: 1375 (PWQQQPL; REGION 1..7: note = epitope) [compound 1375]

Epitope sequence binding to IgE antibody, rank of the sequence (serum of patient P9 (WDEIA)): Preferably
Substance: 1378 (QQPLPPQQQP; REGION 1..10: note = epitope) [compound 1378]

Epitope sequence binding to IgE antibody, rank of the sequence (serum of patient P10 (WDEIA)): Key
Substance: 1380 (PWQQQPLPPQ; REGION 1..10: note = epitope) [compound 1380]

Epitope sequence binding to IgE antibody, rank of the sequence (serum of patient P12 (WDEIA)): Preferably
Substance: 1381 (PWQQQPLPPQ; REGION 1..10: note = epitope) [compound 1381]

Epitope sequence binding to IgE antibody, rank of the sequence (serum of patient P12 (WDEIA)): Key
Substance: 1382 (PWQQQPLPP; REGION 1..9: note = epitope) [compound 1382]

Epitope sequence binding to IgE antibody, rank of the sequence (serum of patient P12 (WDEIA)): Key
Substance: 1383 (PPQQQ; REGION 1..5: note = epitope) [compound 1383]

Epitope sequence binding to IgE antibody, rank of the sequence (serum of patient P14 (WDEIA)): Preferably
Substance: 1385 (KPWQQQPLP; REGION 1..9: note = epitope) [compound 1385]

Epitope sequence binding to IgE antibody, rank of the sequence (serum of patient P14 (WDEIA)): Preferably
Substance: 1388 (QQPLPPQQQ; REGION 1..9: note = epitope) [compound 1388]

Epitope sequence binding to IgE antibody, rank of the sequence (serum of patient P15 (WDEIA)): Key
Substance: 1390 (PWQQQ; REGION 1..5: note = epitope) [compound 1390]

Epitope sequence binding to IgE antibody, rank of the sequence (serum of patient P15 (WDEIA)): Key
Substance: 1391 (QPLPPQQQ; REGION 1..8: note = epitope) [compound 1391]

Epitope sequence binding to IgE antibody, rank of the sequence (serum of patient P21 (WDEIA)): Preferably
Substance: 1393 (QPLPPQQQ; REGION 1..8: note = epitope) [compound 1393]

Epitope sequence binding to IgE antibody, rank of the sequence (serum of patient P21 (WDEIA)): Key
Substance: 1394 (QPLP; REGION 1..4: note = epitope) [compound 1394]

Epitope sequence binding to IgE antibody, rank of the sequence (serum of patient P35 (WDEIA)): Preferably
Substance: 1401 (KPWQQQ; REGION 1..6: note = epitope) [compound 1401]

Epitope sequence binding to IgE antibody, rank of the sequence (Key/Preferably/More preferably/Further preferably): Key
Substance: 1405 (YLQPQQPISQ; REGION 1..10: note = epitope) [compound 1405]

Epitope sequence binding to IgE antibody, rank of the sequence (serum of patient P3 (WDEIA)): Preferably
Substance: 1407 (YLQPQQPISQ; REGION 1..10: note = epitope) [compound 1407]

Epitope sequence binding to IgE antibody, rank of the sequence (serum of patient P3 (WDEIA)): Preferably
Substance: 1409 (QPQQPISQQQ; REGION 1..10: note = epitope) [compound 1409]

Epitope sequence binding to IgE antibody, rank of the sequence (serum of patient P3 (WDEIA)): Preferably
Substance: 1411 (QQPISQQQAQ; REGION 1..10: note = epitope) [compound 1411]

Epitope sequence binding to IgE antibody, rank of the sequence (serum of patient P4 (WDEIA)): Preferably
Substance: 1414 (YLQPQQPISQ; REGION 1..10: note = epitope) [compound 1414]

Epitope sequence binding to IgE antibody, rank of the sequence (serum of patient P4 (WDEIA)): Key
Substance: 1415 (YLQPQQPIS; REGION 1..9: note = epitope) [compound 1415]

Epitope sequence binding to IgE antibody, rank of the sequence (serum of patient P8 (WDEIA)): Key
Substance: 1416 (YLQPQQPIS; REGION 1..9: note = epitope) [compound 1416]

Epitope sequence binding to IgE antibody, rank of the sequence (serum of patient P8 (WDEIA)): Key
Substance: 1417 (QQPISQQQAQ; REGION 1..10: note = epitope) [compound 1417]

Epitope sequence binding to IgE antibody, rank of the sequence (serum of patient P9 (WDEIA)): Preferably
Substance: 1418 (YLQPQQPISQ; REGION 1..10: note = epitope) [compound 1418]

Epitope sequence binding to IgE antibody, rank of the sequence (serum of patient P9 (WDEIA)): Key
Substance: 1419 (YLQPQQPIS; REGION 1..9: note = epitope) [compound 1419]

Epitope sequence binding to IgE antibody, rank of the sequence (serum of patient P9 (WDEIA)): Key
Substance: 1420 (SQQQA; REGION 1..5: note = epitope) [compound 1420]

Epitope sequence binding to IgE antibody, rank of the sequence (serum of patient P10 (WDEIA)): Preferably
Substance: 1422 (YLQPQQ; REGION 1..6: note = epitope) [compound 1422]

Epitope sequence binding to IgE antibody, rank of the sequence (serum of patient P10 (WDEIA)): Key
Substance: 1423 (YLQPQ; REGION 1..5: note = epitope) [compound 1423]

Epitope sequence binding to IgE antibody, rank of the sequence (serum of patient P10 (WDEIA)): Key
Substance: 1424 (SQQQA; REGION 1..5: note = epitope) [compound 1424]

Epitope sequence binding to IgE antibody, rank of the sequence (serum of patient P12 (WDEIA)): Preferably
Substance: 1425 (YLQPQQPIS; REGION 1..9: note = epitope) [compound 1425]

Epitope sequence binding to IgE antibody, rank of the sequence (serum of patient P12 (WDEIA)): Key
Substance: 1426 (YLQPQ; REGION 1..5: note = epitope) [compound 1426]

Rank of partial sequence as epitope binding to IgE antibody (serum of patient P14 (WDEIA)): More preferably
Substance: 1427 (YLQPQQPISQ; REGION 1..10: note = epitope) [compound 1427]

Rank of partial sequence as epitope binding to IgE antibody (serum of patient P14 (WDEIA)): Preferably
Substance: 1428 (YLQPQQPIS; REGION 1..9: note = epitope) [compound 1428]

Rank of partial sequence as epitope binding to IgE antibody (serum of patient P14 (WDEIA)): Key
Substance: 1429 (YLQPQQ; REGION 1..6: note = epitope) [compound 1429]

Rank of partial sequence as epitope binding to IgE antibody (serum of patient P15 (WDEIA)): Preferably
Substance: 1430 (YLQPQQPIS; REGION 1..9: note = epitope) [compound 1430]

Rank of partial sequence as epitope binding to IgE antibody (serum of patient P15 (WDEIA)): Key
Substance: 1431 (YLQPQQP; REGION 1..7: note = epitope) [compound 1431]

Rank of partial sequence as epitope binding to IgE antibody (serum of patient P15 (WDEIA)): Key
Substance: 1432 (SQQQAQ; REGION 1..6: note = epitope) [compound 1432]

Rank of partial sequence as epitope binding to IgE antibody (serum of patient P16 (WDEIA)): Preferably
Substance: 1434 (YLQPQQPI; REGION 1..8: note = epitope) [compound 1434]

Rank of partial sequence as epitope binding to IgE antibody (serum of patient P16 (WDEIA)): Key
Substance: 1436 (LQPQQP; REGION 1..6: note = epitope) [compound 1436]

Rank of partial sequence as epitope binding to IgE antibody (serum of patient P16 (WDEIA)): Preferably
Substance: 1437 (PQQPISQQQA; REGION 1..10: note = epitope) [compound 1437]

Rank of partial sequence as epitope binding to IgE antibody (serum of patient P16 (WDEIA)): Key
Substance: 1439 (SQQQA; REGION 1..5: note = epitope) [compound 1439]

Rank of partial sequence as epitope binding to IgE antibody (serum of patient P18 (WDEIA)): Preferably
Substance: 1441 (YLQPQQPISQ; REGION 1..10: note = epitope) [compound 1441]

Rank of partial sequence as epitope binding to IgE antibody (serum of patient P18 (WDEIA)): Key
Substance: 1442 (YLQPQQPIS; REGION 1..9: note = epitope) [compound 1442]

Rank of partial sequence as epitope binding to IgE antibody (serum of patient P18 (WDEIA)): Key
Substance: 1443 (SQQQA; REGION 1..5: note = epitope) [compound 1443]

Rank of partial sequence as epitope binding to IgE antibody (serum of patient P21 (WDEIA)): Preferably
Substance: 1444 (YLQPQQPIS; REGION 1..9: note = epitope) [compound 1444]
